Results from PubChem BioAssay AID1963875 (Molecular Pharmacology Branch, DTP, NCI, 2024).

System: KRAS-mutant PDC complex spheroid viability
Test: Anticancer human tumor 186277-243-T-J2-PDC patient-derived colon adenocarcinoma cell line growth inhibition [KRAS2]
Details: for IC50: curve of first compound; for viability, T/C: stronger effect = lower value
Text: Multicellular complex tumor spheroid response to RAS pathway inhibitors in combination with a targeted agents in patient-derived cell lines with oncogenic KRAS variants from multiple cancer types
A high-throughput screen of multi-cell type tumor spheroids was designed to identify active combinations of targeted small molecules and KRAS pathway inhibitors. Complex spheroids include a stromal component modeled by human endothelial cells (HUVEC) and fibroblasts modeled by human mesenchymal stem cells (MSCs). The concentration ranges selected for each drug and investigational agent were based upon clinically achievable concentrations if the clinical Cmax of the agent was known.
Compounds. The drugs and investigational agents: BI-3406 (NSC825286), BAY-293 (NSC824723), batoprotafib (TNO155; NSC825523), sotorasib (AMG 510; NSC818433), MRTX1257 (NSC819558), elimusertib (BAY 1895344; NSC800525), molibresib (GSK525762; NSC774829), temuterkib (LY3214996; NSC803410), venetoclax (NSC766270), alisertib (NSC759677), olaparib (NSC753686), talazoparib (NSC767125), erdafitinib (NSC781556), ipatasertib (NSC767898), cabozantinib (NSC761068), nintedanib (NSC756659), abemaciclib (NSC768073), docetaxel (NSC628503), trametinib (NSC758246), and sapanisertib (NSC764658) were obtained from the National Cancer Institute (NCI) Developmental Therapeutics Program Chemical Repository. The FDA-approved anticancer drug set is available from the Developmental Therapeutics Program. […] The stock solutions were prepared in dimethyl sulfoxide (DMSO, Sigma-Aldrich, St. Louis, MO, cat. D2650) at 800-fold the tested concentration and stored at -70 degrees C prior to their use. All drugs and investigational agents were tested over a range starting from a high concentration at or near the clinical Cmax and decreasing in half-log increments. If the clinical Cmax for an agent had not been determined, the highest concentration tested was 10 microM.
Cell Culture. All cells were maintained in an incubator at 37 degrees C and 5% CO2 with 95% humidity. The PDC lines were cultured according to standard operating procedures established by the NCI PDMR (https://pdmr.cancer.gov/sops/default.htm). Briefly, all PDCs were thawed and cultured in Matrigel-coated flasks prepared with a working solution of 1X Ham's F-12 nutrient mix, without supplementation (Invitrogen, Waltham, MA, cat. 11765054), 100 U/mL penicillin-streptomycin (Invitrogen, cat. 15140122), and 2.5% Matrigel (Corning Inc., Corning, NY, cat. 354248) for the first three passages. All PDCs were cultured in complete DMEM/F-12 media containing advanced DMEM/F-12 (Invitrogen, cat. 12634028), 4.9% defined fetal bovine serum, heat inactivated (HyClone Laboratories Inc., Logan, UT, cat. SH30070.03HI), 389 ng/mL hydrocortisone (Sigma-Aldrich, cat. H4001), 9.7 ng/mL human EGF recombinant protein (Invitrogen, cat. PHG0313), 23.4 microg/mL adenine (Sigma-Aldrich, cat. A2786), 97.3 U/mL penicillin-streptomycin (Invitrogen, cat. 15140122), 1.9 mM L-glutamine (Invitrogen, cat. 25030081), and 9.7 microM Y-27632 dihydrochloride (Tocris Bioscience, Bristol, United Kingdom, cat. 1254). The PDCs were cultured in complete DMEM/F12 media without 9.7 microM Y-27632 dihydrochloride for at least two passages prior to the screen. The established cell line HOP-62 was cultured in RPMI 1640 medium, HEPES (Invitrogen, cat. 22400105) with 10% defined fetal bovine serum (HyClone Laboratories Inc., cat. SH30070.03) and 2 mM L-glutamine (Invitrogen, cat. 25030081). The pooled donor HUVEC were cultured in endothelial cell growth medium 2 (PromoCell, Heidelberg, Germany, cat. C-22011) and the hMSC were cultured in mesenchymal stem cell growth medium 2 (PromoCell, cat. C-28009). For all experiments, HUVEC and hMSC were used at passages </=5, while the malignant cell lines were used at passages </=15. […]

[1] = second compound 0.1 µM, first compound 0.0316 µM
[2] = second compound 0.1 µM, first compound 0.1 µM
[3] = second compound 0.1 µM, first compound 0.316 µM
[4] = second compound 0.1 µM, first compound 1 µM
[5] = second compound 0.1 µM, first compound 3.16 µM
[6] = second compound 0.1 µM, first compound 10 µM
[7] = second compound 0.316 µM, first compound 0.0316 µM
[8] = second compound 0.316 µM, first compound 0.1 µM
[9] = second compound 0.316 µM, first compound 0.316 µM
[10] = second compound 0.316 µM, first compound 1 µM
[11] = second compound 0.316 µM, first compound 3.16 µM
[12] = second compound 0.316 µM, first compound 10 µM
[13] = second compound 1 µM, first compound 0.0316 µM
[14] = second compound 1 µM, first compound 0.1 µM
[15] = second compound 1 µM, first compound 0.316 µM
[16] = second compound 1 µM, first compound 1 µM
[17] = second compound 1 µM, first compound 3.16 µM
[18] = second compound 1 µM, first compound 10 µM
[19] = second compound 3.16 µM, first compound 0.0316 µM
[20] = second compound 3.16 µM, first compound 0.1 µM
[21] = second compound 3.16 µM, first compound 0.316 µM
[22] = second compound 3.16 µM, first compound 1 µM
[23] = second compound 3.16 µM, first compound 3.16 µM
[24] = second compound 3.16 µM, first compound 10 µM
[25] = second compound 10 µM, first compound 0.0316 µM
[26] = second compound 10 µM, first compound 0.1 µM
[27] = second compound 10 µM, first compound 0.316 µM
[28] = second compound 10 µM, first compound 1 µM
[29] = second compound 10 µM, first compound 3.16 µM
[30] = second compound 10 µM, first compound 10 µM
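Throughout, for viability, T/C: viability read after seven days of compound exposure; 100% = DMSO vehicle-treated spheroids so lower means less viable.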

| SMILES | IC50 (second compound 0.1 µM) | IC50 (second compound 0.316 µM) | IC50 (second compound 1 µM) | IC50 (second compound 3.16 µM) | IC50 (second compound 10 µM) | viability, T/C [1] | viability, T/C [2] | viability, T/C [3] | viability, T/C [4] | viability, T/C [5] | viability, T/C [6] | viability, T/C [7] | viability, T/C [8] | viability, T/C [9] | viability, T/C [10] | viability, T/C [11] | viability, T/C [12] | viability, T/C [13] | viability, T/C [14] | viability, T/C [15] | also measured |
| --- | --- | --- | --- | --- | --- | --- | --- | --- | --- | --- | --- | --- | --- | --- | --- | --- | --- | --- | --- | --- | --- |
| CC(C)NCC(C(=O)N1CCN(c2ncnc3c2C(C)CC3O)CC1)c1ccc(Cl)cc1 (stereo not given) + C=CC(=O)N1CCN(c2nc(=O)n(-c3c(C)ccnc3C(C)C)c3nc(-c4c(O)cccc4F)c(F)cc23)C(C)C1 | 615 nM | 650 nM | 636 nM | 271 nM | 51.3 nM | 102% | 99.5% | 63.7% | 37.5% | 27.9% | 13.4% | 106% | 93.6% | 63.2% | 41.1% | 23.9% | 11.8% | 109% | 103% | 66.5% | viability, T/C [16]: 36.7%; viability, T/C [17]: 26.3%; viability, T/C [18]: 10.6%; viability, T/C [19]: 100%; viability, T/C [20]: 85.1%; viability, T/C [21]: 40.9%; viability, T/C [22]: 25.7%; viability, T/C [23]: 14.3%; viability, T/C [24]: 8.27%; viability, T/C [25]: 70.3%; viability, T/C [26]: 20.1%; viability, T/C [27]: 15.9%; viability, T/C [28]: 8.02%; viability, T/C [29]: 6.56%; viability, T/C [30]: 2.87% |
| CC1OCC2(CCN(c3cnc(Sc4ccnc(N)c4Cl)c(N)n3)CC2)C1N (stereo not given) + COc1cc2nc(C)nc(NC(C)c3cc(N)cc(C(F)(F)F)c3)c2cc1OC1CCOC1 | > 10000 nM | > 10000 nM | > 10000 nM | > 10000 nM | 1520 nM | 103% | 96.1% | 104% | 108% | 109% | 112% | 106% | 104% | 93.9% | 100% | 115% | 98.1% | 99.9% | 101% | 103% | viability, T/C [16]: 104%; viability, T/C [17]: 114%; viability, T/C [18]: 85.4%; viability, T/C [19]: 98.9%; viability, T/C [20]: 87.6%; viability, T/C [21]: 96.7%; viability, T/C [22]: 114%; viability, T/C [23]: 111%; viability, T/C [24]: 78.8%; viability, T/C [25]: 93.6%; viability, T/C [26]: 96.7%; viability, T/C [27]: 93.5%; viability, T/C [28]: 50.5%; viability, T/C [29]: 39%; viability, T/C [30]: 9.31% |
